In US20230000995A1, “DOLASTATIN 10 ANALOG” (Ariel Scientific Innovations Ltd., priority 2020, published 2023):
Like-named read-outs stand apart in the source and are kept apart here. Where a SMILES comes first, the peptide text is derived from it. [ ]: non-standard residue; d: D form. Dolaproine = CO[C@@H]([C@@H]1CCCN1)[C@@H](C)C(=O)O; Dil = CC[C@H](C)[C@H](NC)[C@@H](CC(=O)O)OC; Phe(ol) = N[C@H](CO)Cc1ccccc1; NMeV = CN[C@H](C(=O)O)C(C)C

Assays:
[1] = system: HCT116 (human colon cancer cell line); assay: In vitro cytotoxicity, XTT assay, 8 days incubation; format: cell-based; conditions: read-out: IC50 HC116 (8 days)
From the text: (§1) The exemplary dolastatin 10 analog, Dolas-Ol, was subjected to an in vitro assay to test its cytotoxicity towards two cancerous cell lines: WM266-4 (malignant melanoma cell line)) and HCT116 (human colon cancer cell line). The study was design to assess the activity of a dolastatin 10 analog, according to some embodiments of the present invention, compared to other dolastatin 10 derivatives known in the art, Auristatin F, Auristatin F-Ol and Dolastatin-CO2H.
(§2) All samples contained DMSO at final concentration<0.05%. Cells cultures were initiated in microplate wells at a concentration of 2-4×10^4 cells/well and the cells were allowed to adhere for 24 h incubation period. At this time the cells were washed, fresh medium containing different concentrations of the tested substances were added and the cells were incubated for additional 8 days. The medium was then removed, all the wells were washed with PBS and cultured for 24 hrs in fresh medium without drugs. The cells were washed again and given a fresh medium containing the XTT reagent and re-incubated for 2-4 h. Absorbence in the wells was measured with a TECAN Infinite M200 ELISA reader at both 480 and 680 nm e, the latter being the background absorbance. The absorbencies were normalized to the absorbance of cells grown in medium and solvent. All the tests were repeated three times in quadruplicates.

[2] = system: WM266-4 (malignant melanoma cell line); assay: as above; format: cell-based; conditions: read-out: IC50 MW266 (8 days)
From the text: as §1, §2

[3] = system: L1210 murine leukemia cells; conditions: L1210 murine leukemia cells in culture; read-out: IC50 value for cell growth; cited from earlier work
[4] = system: tubulin; conditions: cited from earlier work
[5] = system: tubulin; conditions: purified tubulin in glutamate; read-out: IC50 for the polymerization of purified tubulin in glutamate; cited from earlier work
[6] = system: H1299 cells that overexpressed SSTR2; assay: Growth inhibition by Dolas-Ol conjugates, XTT assay; format: cell-based; conditions: 1 μM, 3 hours exposure, then 8 days
Procedure: (§3) Table 2 presents the growth inhibition values of octreotide amide, conjugates 8b-d in the cell cultures calculated according to the concentration of 1 μM. The calculation for all values is provided relative to control 100% of GI (for all values, p<0.01).

[7] = system: HC116 cells that overexpressed SSTR2; assay: as above; format: cell-based; conditions: 1 μM, 3 hours exposure, then 8 days
Procedure: as §3

[8] = system: TRAMP C2 cells that overexpressed SSTR2; assay: as above; format: cell-based; conditions: 1 μM, 3 hours exposure, then 8 days
Procedure: as §3

[9] = system: cell lines with overexpressed SSTR2 versus HEK; conditions: 1 μM; SSTR2 overexpressing cell lines versus HEK with low expression
Procedure: HC116, H1299 and TRAMP C2 cells that overexpressed SSTR2 were incubated for 3 hours with 1 μM doses of the conjugates, according to some embodiments of the present invention, and then the cells were washed and proceed for incubation for the following 8 days. At the end of incubation for 8 days, the metabolic activities of cells were measured using the XTT assay.

[10] = system: HEK (low SSTR2 expression); assay: Growth inhibition by Dolas-Ol conjugates, XTT assay, negative control cells; format: cell-based; conditions: 1 μM, 3 hours exposure, then 8 days
Procedure: as §3

CC[C@H](C)[C@@H]([C@@H](CC(=O)N1CCC[C@H]1[C@H](OC)[C@@H](C)C(=O)N[C@@H](Cc1ccccc1)C(=O)O)OC)N(C)C(=O)[C@@H](NC(=O)[C@@H](NC)C(C)C)C(C)C (H-[NMeV]V[Dil][Dolaproine]F-OH)
IC50 ([1]; Homo sapiens, HCT-116, 192 h): 18.27 ± 0.06 nM | IC50 ([2]; Homo sapiens, WM 266-4, 192 h): 15.59 ± 0.03 nM

CC[C@H](C)[C@@H]([C@@H](CC(=O)N1CCC[C@H]1[C@H](OC)[C@@H](C)C(=O)N[C@H](CO)Cc1ccccc1)OC)N(C)C(=O)[C@@H](NC(=O)[C@@H](NC)C(C)C)C(C)C [Auristatin F- O1] (H-[NMeV]V[Dil][Dolaproine][Phe(ol)])
IC50 ([1]; Homo sapiens, HCT-116, 192 h): 29.71 ± 0.04 nM | IC50 ([2]; Homo sapiens, WM 266-4, 192 h): 58.82 ± 0.05 nM

CC[C@H](C)[C@@H]([C@@H](CC(=O)N1CCC[C@H]1[C@H](OC)[C@@H](C)C(=O)N[C@@H](Cc1ccccc1)c1nccs1)OC)N(C)C(=O)[C@@H](NC(=O)[C@H](C(C)C)N(C)C)C(C)C [Dolastatin 10]
IC50 [3]: 0.5 nM | inhibition of the binding of radiolabeled vinblastine and vincristine to tubulin [4]: strongest inhibitor | IC50 [5]: 1200 nM

CC[C@H](C)[C@@H]([C@@H](CC(=O)N1CCC[C@H]1[C@H](OC)[C@@H](C)C(=O)N[C@@H](Cc1ccccc1)c1nc(C(=O)O)cs1)OC)N(C)C(=O)[C@@H](NC(=O)[C@H](C(C)C)N(C)C)C(C)C [Dolastatin- CO2H]
IC50 ([1]; Homo sapiens, HCT-116, 192 h): 52.5 ± 0.03 nM | IC50 ([2]; Homo sapiens, WM 266-4, 192 h): 31.75 ± 0.02 nM

C[C@@H](O)[C@H](NC(=O)[C@@H]1CSSC[C@H](NC(=O)[C@H](N)Cc2ccccc2)C(=O)N[C@@H](Cc2ccccc2)C(=O)N[C@H](Cc2c[nH]c3ccccc23)C(=O)N[C@@H](CCCCN)C(=O)N[C@@H]([C@@H](C)O)C(=O)N1)C(N)=O [Octreotide amide]
growth inhibition, H1299-8 days [6]: 8.4% | growth inhibition, HC116-8 days [7]: 6.1% | growth inhibition, TRAMP C2-8 days [8]: 6.5% | cytotoxicity (in words) [9]: not cytotoxic | growth inhibition, HEK as negative control [10]: 7.9%

COc1cc2cc(c1Cl)N(C)C(=O)C[C@H](OC(=O)[C@H](C)N(C)C(C)=O)[C@]1(C)O[C@H]1[C@H](C)[C@@H]1C[C@@](O)(NC(=O)O1)[C@H](OC)/C=C/C=C(\C)C2 [maytansine]
IC50 [3]: 0.5 nM | IC50 [5]: 3500 nM

C=C(C)[C@@H]1NC(=O)[C@@H](NC)[C@@H](O)c2cc(Cl)c(O)c(c2)O[C@](C)(CC)[C@@H](C(=O)N2CC=C[C@H]2C(=O)N/C(C(=O)N/C(=C/C(=O)O)C(=O)O)=C(\C)CC)NC1=O [phomopsin A]
IC50 [3]: 7000 nM | IC50 [5]: 1400 nM

CO[C@@H](/C(C)=C/C=C/C(C)=C/c1coc(C)n1)[C@@H](C)[C@@H]1C[C@H](O)[C@@]2(C)O[C@@H]2/C=C/[C@@H](C)[C@H]2C[C@H](CC(=O)O2)C[C@@H]2O[C@H]2C(=O)O1 [rhizoxin]
IC50 [3]: 1 nM | IC50 [5]: 6800 nM

CC[C@]1(O)C[C@@H]2CN(CCc3c([nH]c4ccccc34)[C@@](C(=O)OC)(c3cc4c(cc3OC)N(C)[C@H]3[C@@](O)(C(=O)OC)[C@H](OC(C)=O)[C@]5(CC)C=CCN6CC[C@]43[C@@H]65)C2)C1 [vinblastine]
IC50 [3]: 20 nM | IC50 [5]: […]

(2S)-2-((S)-2-(dimethylamino)-3-methylbutanamido)-N-((3R,4S,5S)-1-((2S)-2-((1R,2R)-3-((1-(5-(hydroxymethyl)thiazol-2-yl)-2-phenylethyl)amino)-1-methoxy-2-methyl-3-oxopropyl)pyrrolidin-1-yl)-3-methoxy-5-methyl-1-oxoheptan-4-yl)-N,3-dimethylbutanamide [Dolas-O1]
IC50 [1]: 3.67 ± 0.03 nM | IC50 [2]: 2.24 ± 0.03 nM
